For one assay, the target named is T1, wild type human POLγ (POLγA:WT) (Homo sapiens, UniProt P54098).
T1 sequence (P54098 1-1239): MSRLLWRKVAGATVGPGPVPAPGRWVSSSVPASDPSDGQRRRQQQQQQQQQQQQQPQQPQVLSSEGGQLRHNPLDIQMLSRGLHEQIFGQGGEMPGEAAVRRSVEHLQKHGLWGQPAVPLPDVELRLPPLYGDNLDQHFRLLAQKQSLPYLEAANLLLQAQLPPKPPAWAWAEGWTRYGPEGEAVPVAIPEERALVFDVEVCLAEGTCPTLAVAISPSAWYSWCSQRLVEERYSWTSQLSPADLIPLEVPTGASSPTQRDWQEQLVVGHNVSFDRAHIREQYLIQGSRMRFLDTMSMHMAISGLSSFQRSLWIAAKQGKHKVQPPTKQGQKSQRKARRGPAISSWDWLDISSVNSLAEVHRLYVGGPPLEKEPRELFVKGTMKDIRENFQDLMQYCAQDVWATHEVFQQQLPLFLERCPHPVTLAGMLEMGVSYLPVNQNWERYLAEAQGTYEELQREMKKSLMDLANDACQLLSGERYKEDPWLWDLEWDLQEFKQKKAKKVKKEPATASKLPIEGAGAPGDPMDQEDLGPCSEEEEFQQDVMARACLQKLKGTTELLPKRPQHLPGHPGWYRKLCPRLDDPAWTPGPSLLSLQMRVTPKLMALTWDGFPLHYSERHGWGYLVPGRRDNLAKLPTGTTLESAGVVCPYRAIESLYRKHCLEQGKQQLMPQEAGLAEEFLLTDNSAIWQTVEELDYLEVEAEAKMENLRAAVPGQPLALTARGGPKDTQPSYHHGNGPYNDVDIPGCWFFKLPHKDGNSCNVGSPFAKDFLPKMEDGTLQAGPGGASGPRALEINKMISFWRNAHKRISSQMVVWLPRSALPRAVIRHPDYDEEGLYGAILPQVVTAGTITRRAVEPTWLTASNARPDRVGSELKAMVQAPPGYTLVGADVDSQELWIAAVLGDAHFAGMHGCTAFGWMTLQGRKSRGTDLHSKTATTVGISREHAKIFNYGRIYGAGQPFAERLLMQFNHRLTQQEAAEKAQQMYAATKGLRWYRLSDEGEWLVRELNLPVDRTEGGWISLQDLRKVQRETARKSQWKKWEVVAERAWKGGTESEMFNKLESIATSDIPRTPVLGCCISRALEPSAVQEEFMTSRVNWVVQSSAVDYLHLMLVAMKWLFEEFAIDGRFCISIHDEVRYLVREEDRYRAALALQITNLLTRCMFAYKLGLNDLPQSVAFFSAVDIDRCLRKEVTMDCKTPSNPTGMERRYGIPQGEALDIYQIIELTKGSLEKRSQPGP
T1 sequence (Q9UHN1 1-485 partner): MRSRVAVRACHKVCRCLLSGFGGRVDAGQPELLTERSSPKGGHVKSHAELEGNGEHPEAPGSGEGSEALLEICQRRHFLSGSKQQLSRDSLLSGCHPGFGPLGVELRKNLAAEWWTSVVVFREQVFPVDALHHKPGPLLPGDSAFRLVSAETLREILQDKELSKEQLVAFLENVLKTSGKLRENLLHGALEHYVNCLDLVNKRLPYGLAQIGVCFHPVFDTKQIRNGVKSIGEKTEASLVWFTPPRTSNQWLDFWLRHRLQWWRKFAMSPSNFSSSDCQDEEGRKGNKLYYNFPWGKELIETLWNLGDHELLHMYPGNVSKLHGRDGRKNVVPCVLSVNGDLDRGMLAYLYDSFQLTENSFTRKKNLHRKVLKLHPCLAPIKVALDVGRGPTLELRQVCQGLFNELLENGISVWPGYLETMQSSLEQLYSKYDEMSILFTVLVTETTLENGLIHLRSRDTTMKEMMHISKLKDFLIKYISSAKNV
The assay is described as follows: DNA polymerization assay, wild type POLγ. To be noted: 0.1 μM dNTP, read-out: WT AC50 (μM) at 0.1 μM. Type of assay: biochemical.
As a reminder, the AC50 is the concentration giving half of the maximal activity seen. As to `Cc1csc(-c2ccccc2NS(=O)(=O)c2cc(C)c(Cl)cc2C)n1` [Example 80, 4-chloro-2,5-dimethyl-N-(2-(4-methylthiazol-2-yl)phenyl)benzenesulfonamide], the AC50 was greater than 100 µM.

The same assay, now with this note: 100 μM dNTP, read-out: WT AC50 (μM) at 100 μM.
`Cc1cc(S(=O)(=O)Nc2cccc(-c3ncc(CO)s3)c2)c(C)cc1Cl` [Example 89, 4-chloro-N-(3-(5-(hydroxymethyl)thiazol-2-yl)phenyl)-2,5-dimethylbenzenesulfonamide]: the AC50 came out at 0.3 µM. As for `Cc1cnc(-c2ccc(NS(=O)(=O)c3cc(C)c(Cl)cc3C)cc2)s1` [Example 83, 4-chloro-2,5-dimethyl-N-(4-(5-methylthiazol-2-yl)phenyl)benzenesulfonamide], the AC50 was 6 µM. Same read-out and setting: for `Cc1cc(S(=O)(=O)Nc2cccc(-c3ncc(C4CC4)s3)c2)c(C)cc1Cl` [Example 76, 4-chloro-N-(3-(5-cyclopropylthiazol-2-yl)phenyl)-2,5-dimethylbenzenesulfonamide] the value was 0.4 µM; for `Cc1cc(S(=O)(=O)Nc2csc(-c3ccccc3)n2)c(C)cc1Cl` [Example 81, 4-chloro-2,5-dimethyl-N-(2-phenylthiazol-4-yl)benzenesulfonamide], 0.2 µM; for `Cc1cc(S(=O)(=O)Nc2ccc3ccn(C)c3c2)c(C)cc1Cl` [Example 72, 4-chloro-2,5-dimethyl-N-(1-methyl-1H-indol-6-yl)benzenesulfonamide], 4 µM. On the same count and under the same terms, in the case of `Cc1cc(S(=O)(=O)Nc2cccc(-c3ncc(CN(C)C)s3)c2)c(C)cc1Cl` [Example 87, 4-chloro-N-(3-(5-((dimethylamino)methyl)thiazol-2-yl)phenyl)-2,5-dimethylbenzenesulfonamide] it was 4 µM; in that of `Cc1nc2ccc(NS(=O)(=O)c3cc(C)c(Cl)cc3C)cc2s1` [Example 73, 4-chloro-2,5-dimethyl-N-(2-methylbenzo[d]thiazol-6-yl)benzenesulfonamide], 2 µM.
